Reference: patent US12491217B2, “Compositions and methods for promoting healthy neural development in an unborn baby” (The Regents of the University of California, priority 2019, dated 2025)
Where a name gives a salt, the structure may show the parent alone.

Tested on: thalamic explants from E14.5 embryos of ABX-treated dams
Assay: Axon outgrowth assay with individual metabolite supplementation
Format: cell-based, C57Bl/6J mice
Conditions: for Length of ABX thalamic axons proximal to hypothalamus / Number of ABX thalamic axons proximal to hypothalamus: ABX thalamic + ABX hypothalamic explant; for Length of ABX thalamic axons proximal to hypothalamus / Number of ABX thalamic axons proximal to hypothalamus / Length of axons proximal to striatal explant: 1 nM, 100 nM, 10 uM; for Length of axons proximal to striatal explant / Number of axons per 200 μm of thalamic perimeter proximal to striatal explant: ABX thalamic + ABX striatal explant, 48 hrs; for Number of axons per 200 μm of thalamic perimeter proximal to striatal explant: physiologically-relevant concentrations (1 nM, 100 nM, 10 uM)
Procedure: Dams were sacrificed on E14.5 by cervical dislocation to preclude confounding effects of CO2 on maternal and fetal physiology. Thalamic, striatal, and hypothalamic explants were isolated from E14.5 embryonic brains and transferred to ice-cold HBSS (Invitrogen). Explants were sliced to ˜500 μm and placed on a thin layer of 50 μl BD Matrigel (Beckton Dickinson) on a 15 mm coverslip. Each coverslip contained a thalamic explant at the center and a striatal and hypothalamic explant on each side, at 1 mm equidistant from the thalamic explant. Explants were incubated in warmed neurobasal complete media containing 1× neurobasal medium (Thermofisher Scientific), 1× GlutaMax (Thermofisher Scientific), and 2% B-27 (Thermofisher Scientific) for 48 hrs at 37° C., and fed with fresh media every 24 hrs. After 48 hrs, media was gently aspirated and replaced with 4% PFA for 1 hr and processed for immunofluorescence staining with 1:500 (3 tubulin III anti-mouse antibody (EMD Millipore MAB1637). Axons were imaged using a Leica DMi8 epifluorescence microscope and quantified using Fiji software^78. Axon numbers were quantified per 200 μm of thalamus at a distance of 200 μm from the thalamus. Length of axons was quantified by averaging length of the 10 longest axons proximal to striatum or hypothalamus. Data for number and length of axons in the explant co-culture system was normalized by subtraction of data from monoculture of thalamic explants from the corresponding experimental group.
Thalamic, striatal, and hypothalamic explants from ABX-treated dams were harvested and cultured as described in the “axon outgrowth assay” section above. For metabolite treatment, BD Matrigel was supplemented with […], 100 nM, or 1 nM of trimethylamine-N-oxide (TMAO), 5-aminovalerate (5-AV), imidazole propionate (IP), 3-indoxyl-sulfate (3-IS), or hippurate (llip)^48,79-81. 5-aminovalerate is a precursor to N,N,N-trimethyl-5-aminovalerate (TMAV), which is not commercially available, and both are implicated in carnitine metabolism^82,83. Metabolite concentrations were determined as physiologically relevant, based on reported concentrations detected in blood and/or cerebrum from the mouse multiple tissue metabolomic database (MMIvIDB), human metabolome database (HMDB) and existing literature^48,79-81. Axons were stained, imaged and analyzed as described in the “axon outgrowth assay” section above.

For `O=S(=O)(O)Oc1c[nH]c2ccccc12` [3-IS, 3-indoxyl sulfate], the “Length of ABX thalamic axons proximal to hypothalamus” value (from here on “Length of ABX thalamic axons proximal”) was “No statistically significant changes”, the “Number of ABX thalamic axons proximal to hypothalamus” value (“Number of ABX thalamic axons proximal” below) was “No statistically significant changes” and the “Length of axons proximal to striatal explant” value (shortened to “Length of axons proximal”) was “modest, but not statistically significant, increases in axon length”. For the same compound, the “Number of axons per 200 μm of thalamic perimeter proximal to striatal explant” value (“Number of axons per 200 μm … to striatal explant” below) was “but not 3-IS, significantly increased axon number”.

`NCCCCC(=O)O` [5-AV, 5-aminovalerate] was tested, and the “Length of ABX thalamic axons proximal” value was “No statistically significant changes”, the “Number of ABX thalamic axons proximal” value was “No statistically significant changes” and the “Length of axons proximal” value was “significantly increased axon length”. The “Number of axons per 200 μm … to striatal explant” value was “significantly increased axon number to levels seen in fetal brain explants from embryos of SPF dams”.

For `O=C(O)CNC(=O)c1ccccc1` [HIP, hippurate], the “Length of ABX thalamic axons proximal” value was “No statistically significant changes”, the “Number of ABX thalamic axons proximal” value was “No statistically significant changes” and the “Length of axons proximal” value was “no effect”. The “Number of axons per 200 μm … to striatal explant” value was “significantly increased axon number to levels seen in fetal brain explants from embryos of SPF dams”.

For `O=C(O)CCc1cnc[nH]1` [IP, imidazole propionate], the “Length of ABX thalamic axons proximal” value was “No statistically significant changes”, the “Number of ABX thalamic axons proximal” value was “No statistically significant changes” and the “Length of axons proximal” value was “significantly increased axon length”. For the same compound, the “Number of axons per 200 μm … to striatal explant” value was “significantly increased axon number to levels seen in fetal brain explants from embryos of SPF dams”.

In the case of `C[N+](C)(C)[O-]` [TMAO, trimethylamine-N-oxide], the “Length of ABX thalamic axons proximal” value is reported as “No statistically significant changes”, the “Number of ABX thalamic axons proximal” value is reported as “No statistically significant changes” and the “Length of axons proximal” value is reported as “modest, but not statistically significant, increases in axon length”. For the same compound, the “Number of axons per 200 μm … to striatal explant” value was “significantly increased axon number to levels seen in fetal brain explants from embryos of SPF dams”.
